Data: patent US20230293629A1, “METHODS FOR ATTENUATING RELEASE OF INFLAMMATORY MEDIATORS AND PEPTIDES USEFUL THEREIN” (BIOMARCK PHARMACEUTICALS LTD., priority 2006, published 2023)
Where a SMILES comes first, the peptide text is derived from it. Where no end group is shown, it is not given here. The star is where a group is joined. Myristoyl = CCCCCCCCCCCCCC(=O)*

Legend:
[1] = Qualitative solubility of peptides in 0.5 N saline, pH 6.5
human neutrophils = experiment: PMA-stimulated MPO release from isolated human neutrophils (TMB assay); format: cell-based; conditions: for % Inhibition MPO: 100 μM test peptide, two hour incubation with 100 nM PMA, human neutrophils; for increase of human neutrophil MPO release versus control level: 100 nM PMA; for MPO activity relative to control as 100%: 30 min after 100 nM PMA, PMA control reference about 275%
From the text: Human neutrophil isolation—These studies were approved by the human studies Institutional Review Board (IRB). Human neutrophils were isolated as previously described (see Takashi S, OkuboY, Horie S. Contribution of CD54 to human eosinophil and neutrophil superoxide production. J Appl Physiol 2001; 91:613-622) with slight modifications. Briefly, heparinized venous blood was obtained from normal healthy volunteers, diluted with RPMI-1640 (Cellgro; Mediatech, Inc., Herndon, VA) at a ratio of 1:1, layered onto a Histopaque (density, 1.077 g/ml; Sigma-Aldrich Co., St. Louis, MO) and centrifuged at 400 g for 20 min at 4° C. The supernatant and mononuclear cells at the interface were carefully removed, and erythrocytes in the sediment were lysed in chilled distilled water. Isolated granulocytes were washed twice with Hanks' balanced salts solution (HBSS) and resuspended in HBSS on ice.
Measurement of released neutrophil MPO activity—For measurement of MPO release, purified human neutrophils suspended in HBSS were aliquoted at 4×10^6 cells/ml in 15 ml tubes and preincubated with either 50 or 100 μM of MANS, RNS, or one of the peptides of invention for 10 min at 37° C. The cells then were stimulated with 100 nM phorbol 12-myristate 13-acetate (PMA) for up to 3 hrs. A control reference (PMA control reference) was established using purified human neutrophils suspended in HBSS aliquoted at 4×10^6 cells/ml in 15 mL tubes and stimulated with 100 nM phorbol 12-myristate 13-acetate (PMA) in the absence of a test peptide for the same time periods. The reaction was terminated by placing the tubes on ice and centrifugation at 400 g for 5 min at 4° C.
MPO activity in the cell supernatant was assayed using tetramethylbenzidine (TMB) based on a previously established technique (Abdel-Latif D, Steward M, Macdonald D L, Francis G A., Dinauer M C, Lacy P. Rac2 is critical for neutrophil primary granule exocytosis. Blood 2004; 104:832-839). Briefly, 100 μL of TMB substrate solution was added to 50 μL of cell supernatants or standard human MPO (EMD Biosciences, Inc., San Diego, CA) in a 96-well microplate followed by incubation at room temperature for 15 min. The reaction was terminated by addition of 50 μL of 1M […] and absorbance was read at 450 nm in a spectrophotometric microplate reader (VERSA max, Molecular Devices, Sunnyvale, CA).
The data presented in the table below represents 100 μM concentration of test peptides and a two hour incubation with 100 nM PMA.

[2] = tested on: isolated canine neutrophils; experiment: MPO secretion from isolated canine neutrophils stimulated with PMA + 8-Br-cGMP (FIG. 6, 10, 11); format: cell-based; conditions: for MPO secretion: FIG. 6, 100 nM PMA and 10 μM 8-Br-cGMP
From the text: The invention also relates to a new method for blocking any cellular exocytotic secretory process, especially those releasing inflammatory mediators from granules contained within inflammatory cells, whose stimulatory pathways involve the protein kinase C (PKC) substrate MARCKS protein and release of contents from membrane-bound vesicles. Specifically, the inventors have shown that stimulated release of the inflammatory mediator myloperoxidase from human (FIG. 6) or canine (FIG. 7) neutrophils can be blocked in a concentration-dependent manner by the MANS peptide. […] 10 or 100 μM of a control peptide (RNS) has no effect on MPO secretion. In FIG. 7, isolated neutrophils were stimulated to secrete myloperoxidase (MPO) with 100 nM PMA and 10 μM 8-Br-cGMP. […] 10 or 100 μM of a control peptide (RNS) has no effect on MPO secretion. Thus, the peptide may be used therapeutically to block the release of mediators of inflammation secreted from infiltrating inflammatory cells in any tissues. Many of these released mediators are responsible for the extensive tissue damage observed in a variety of chronic inflammatory diseases (i.e., respiratory diseases such as asthma, chronic bronchitis and COPD, inflammatory bowel diseases including ulcerative colitis and Crohn's disease, autoimmune diseases, skin diseases such as rosacea, eczema; and severe acne, arthritic and pain syndromes such as rheumatoid arthritis and fibromyalgia). This invention may be useful for treating diseases such as arthritis, chronic bronchitis, COPD and cystic fibrosis. This invention is accordingly useful for the treatment in both human and animal diseases, especially those affecting equines, canines, felines, and other household pets.
FIGS. 8-12 show MPO secretion for both humans and canines. In all of these experiments, isolated neutrophils were stimulated with LPS at a concentration of 1×10^−6 M for 10 minutes at 37° C. prior to adding the stimuli as indicated in the figures. The LPS primes the cells so they can respond to a secretagogue.
Isolation of PMNs from canine blood—The steps involved in isolating PMN include collecting 10 ml ACD anticoagulated blood. Then layering 5 ml on 3.5 ml PMN isolation media while ensuring that the PMN isolation media (IM) was at room temperature (RI). Next, the blood was centrifuged at room temperature for 30′, 550×g at 1700 RPMs. The low lower white band was transferred into 15 ml conical centrifuge tube (CCFT). Next, 2V HESS with 10% fetal bovine serum […] was added and centrifuged at room temperature for 10′, 400×g at 1400 RPMs. The pellet was then resuspended in 5 ml 1-1ESS with PBS. The cell suspension was added to 50 ml CCFT containing 20 ml of ice cold 0.88% NH4Cl and inverted two to three times. The resulting product was centrifuged for 10′, 800×g at 2000 RPMs, then aspirated and resuspended in 5 ml HBSS with FBS. The prep was examined by counting and cytospin and preferably for whole blood, the cell number should be between 10^9-10^11 cells and for PMNs, cell number should be between 2-4×10^7 cells. See generally, Wang et al., J. Immunol., “Neutrophil-induced changes in the biomechanical properties of endothelial cells: roles of ICAM-1 and reactive oxygen species,” 6487-94 (2000).
MPO Colorimetric Enzyme Assay—Samples were assayed for MPO activity in 96 well round bottom microtiter plates using a sandwich ELISA kit (R & D Systems, Minneapolis, Minn.). […]

Q: Which solubility [1] does the source give for Ac-GAQFSKTAAKGEAAAERPGEAAVA here?
A: > 250 mg/mL

Q: With Ac-GAQFSKTAAK [Ac-GAQFSKTAAK] as the compound, how does the solubility [1] read?
A: > 100 mg/mL

Q: What about the “% Inhibition MPO” value (human neutrophils) of the same compound?
A: 25.3%

Q: Which MPO secretion ([2]; 10 or 100 μM peptide) does the source give for `CCCCCCCCCCCCCC(=O)NCC(=O)N[C@H](C(=O)N[C@@H](C)C(=O)N1CCC[C@H]1C(=O)N[C@@H](C)C(=O)N[C@@H](C)C(=O)N[C@@H](CCC(=O)O)C(=O)NCC(=O)N[C@@H](C)C(=O)NCC(=O)N[C@@H](C)C(=O)N[C@@H](CCC(=O)O)C(=O)N[C@H](C(=O)N[C@@H](CCCCN)C(=O)N[C@@H](CCCNC(=N)N)C(=O)N[C@@H](C)C(=O)N[C@@H](CO)C(=O)N[C@@H](C)C(=O)N[C@@H](CCC(=O)O)C(=O)N[C@@H](C)C(=O)N[C@@H](CCCCN)C(=O)N[C@@H](CCC(N)=O)C(=O)N[C@@H](C)C(=O)N[C@@H](Cc1ccccc1)C(=O)O)C(C)C)[C@@H](C)O` [RNS, reference compound] (Myristoyl-GTAPAAEGAGAEVKRASAEAKQAF-OH; C-terminus assumed) here?
A: no effect

Q: What about the solubility [1] of the same compound?
A: > 15 mg/mL

Q: What about the “% Inhibition MPO” value (human neutrophils) of the same compound?
A: 0%

Q: And the “effect on PMA-induced MPO release” value (human neutrophils; any of the time points or concentrations tested)?
A: did not affect

Q: For `CCCCCCCCCCCCCC(=O)O[C@@H]1[C@@H](C)[C@@]2(O)[C@@H](C=C(CO)C[C@]3(O)C(=O)C(C)=C[C@@H]23)[C@@H]2C(C)(C)[C@]12OC(C)=O` [PMA, phorbol 12-myristate 13-acetate], which “MPO secretion from LPS-stimulated canine neutrophils” value ([2]; FIG. 10, PMA alone, enhanced concentration-dependently by co-stimulation with 8-Br-cGMP) is on record?
A: small increase

Q: What about the “increase of human neutrophil MPO release versus control level” value (human neutrophils; 30 min) of the same compound?
A: approximately threefold

Q: And the “increase of human neutrophil MPO release versus control level” value (human neutrophils; after 3 hrs)?
A: 5-6 fold

Q: Which MPO secretion ([2]; 10 μM peptide) does the source give for `CCCCCCCCCCCCCC(=O)NCC(=O)N[C@@H](C)C(=O)N[C@@H](CCC(N)=O)C(=O)N[C@@H](Cc1ccccc1)C(=O)N[C@@H](CO)C(=O)N[C@@H](CCCCN)C(=O)N[C@H](C(=O)N[C@@H](C)C(=O)N[C@@H](C)C(=O)N[C@@H](CCCCN)C(=O)NCC(=O)N[C@@H](CCC(=O)O)C(=O)N[C@@H](C)C(=O)N[C@@H](C)C(=O)N[C@@H](C)C(=O)N[C@@H](CCC(=O)O)C(=O)N[C@@H](CCCNC(=N)N)C(=O)N1CCC[C@H]1C(=O)NCC(=O)N[C@@H](CCC(=O)O)C(=O)N[C@@H](C)C(=O)N[C@@H](C)C(=O)N[C@H](C(=O)N[C@@H](C)C(=O)O)C(C)C)[C@@H](C)O` [MANS] (Myristoyl-GAQFSKTAAKGEAAAERPGEAAVA-OH; C-terminus assumed) here?
A: slight decrease

Q: What about the MPO secretion ([2]; 100 (unit not given) peptide) of the same compound?
A: decreased secretion of MPO to control levels

Q: What about the “MPO activity relative to control as 100%” value (human neutrophils; 50 μM) of the same compound?
A: about 275%

Q: And the “reduction in MPO release versus the PMA control reference” value (human neutrophils; 50 μM, 1 hr)?
A: about 15%

Q: What about the “MPO activity % of control” value (human neutrophils; 50 μM, 1 hr, PMA control reference about 340%) of the same compound?
A: about 290%

Q: And the “reduction of MPO release versus the PMA control reference” value (human neutrophils; 50 μM, 2 hours)?
A: approximately 30%

Q: What about the “MPO activity % of control” value (human neutrophils; 50 μM, 2 hours, PMA control reference about 540%) of the same compound?
A: about 375%

Q: What about the “reduction of MPO release versus the PMA control reference” value (human neutrophils; 50 μM, 3 hours) of the same compound?
A: approximately 33%

Q: What about the “MPO activity % of control” value (human neutrophils; 50 μM, 3 hours, PMA control reference about 560%) of the same compound?
A: about 375%

Q: What about the “% Inhibition MPO” value (human neutrophils) of the same compound?
A: 31.2%

Q: And the “MPO activity relative to control as 100%” value (human neutrophils; 100 μM)?
A: about 305%

Q: What about the “reduction in MPO release versus the PMA control reference” value (human neutrophils; 100 μM, 1 hr) of the same compound?
A: about 25%

Q: What about the “MPO activity % of control” value (human neutrophils; 100 μM, 1 hr, PMA control reference about 340%) of the same compound?
A: about 260%

Q: And the “reduction of MPO release versus the PMA control reference” value (human neutrophils; 100 μM, 2 hours)?
A: approximately 45%

Q: What about the “MPO activity % of control” value (human neutrophils; 100 μM, 2 hours, PMA control reference about 540%) of the same compound?
A: about 295%

Q: What about the “reduction of MPO release versus the PMA control reference” value (human neutrophils; 100 μM, 3 hours) of the same compound?
A: approximately 40%

Q: What about the “MPO activity % of control” value (human neutrophils; 100 μM, 3 hours, PMA control reference about 560%) of the same compound?
A: about 320%

Q: And the “effect on PMA-induced MPO release” value (human neutrophils; 50 and 100 μM, 30 min)?
A: no detected effect
